Columns and labels:
[1] = vs prior art compound, same dosage, from blood T1 at 20 minutes
Experimental: Pharmacokinetics of the compound in a pure breed beagle dog
A male dog was injected with the test compounds at 100 μ mol/kg. Blood was drawn at the indicated times. The plasma was separated and the relaxivity measured.

[2] = Organ distribution of the compound in male rabbits (organ T1 measured in vitro at 5 MHz); conditions: 100 μmol/kg; for T1, Skeletal Muscle: male rabbits, 15 min post injection, 5 MHz
Experimental: The test compounds were injected into male rabbits at 100 μmol/kg. The rabbits were sacrificed at 15 minutes post injection and the relaxivity of internal organs was measured in vitro at 5 MHz.
The test compounds were injected into male rabbits at 100 μ mol/kg. The rabbits were sacrificed at 15 minutes post injection and the relaxivity of internal organs was measured in vitro at 5 MHz.

[3] = Relaxivity (T1, T2) of the compound in human plasma at 10 MHz (37° C.); format: physicochemical; conditions: for T1 Plasma / T2 Plasma: 10 MHz, 37° C.
Experimental: (§1) Relaxivity of the compound in water and in human plasma at 10 MHz (37° C.) (for practical purposes, the lower the T1 in a given part of the body, the brighter the image in MR imaging):
(§2) *T1 and T2 are relaxtion times in msec.

[4] = Relaxivity (T1, T2) of the compound in water at 10 MHz (37° C.); format: physicochemical
Experimental: as §1, §2

In the case of `CCCCCCNC(=O)CN(CCN(CCN(CC(=O)[O-])CC(=O)NCCCCCC)CC(=O)[O-])CC(=O)[O-].[Gd+3]` [Gd DTPA-bishexylamide], the “improvement in image signal intensity” value [1] is reported as “two-fold”, the “T1, Skeletal Muscle” value [2] is reported as 397 ms and the “T1 Plasma” value ([3]; 1.17 × 10^-3 M) is reported as 83 ms. The “T2 Plasma” value ([3]; 1.17 × 10^-3 M) was 71 ms, the “T1 Plasma” value ([3]; 1.46 × 10^-4 M) was 403 ms and the “T1 Plasma” value ([3]; 1.82 × 10^-5 M) was 1087 ms. For the same compound, the “T1 Plasma” value ([3]; 2.34 × 10^-3 M) was 48 ms, the “T2 Plasma” value ([3]; 2.34 × 10^-3 M) was 39 ms and the “T1 Plasma” value ([3]; 2.92 × 10^-4 M) was 249 ms. The “T1 Plasma” value ([3]; 3.68 × 10^-5 M) was 881 ms, the “T1 Plasma” value ([3]; 4.67 × 10^-3 M) was 26 ms and the “T2 Plasma” value ([3]; 4.67 × 10^-3 M) was 21 ms. For the same compound, the “T1 Plasma” value ([3]; 5.84 × 10^-4 M) was 145 ms, the “T2 Plasma” value ([3]; 5.84 × 10^-4 M) was 123 ms and the “T1 Plasma” value ([3]; 7.30 × 10^-5 M) was 622 ms. For the same compound, the “T1 Plasma” value ([3]; 9.12 × 10^-6 M) was 1220 ms, the “T1 Plasma” value ([3]; 9.34 × 10^-3 M) was 15 ms and the “T2 Plasma” value ([3]; 9.34 × 10^-3 M) was 10 ms. For the same compound, the “proton relaxation in plasma compared with the prior art compound” value ([3]; vs Gd DTPA-di(N-methylglucamine), human plasma) was “almost three times better”, the “T1 Water” value ([4]; 1.17 × 10^-3 M) was 159 ms and the “T2 Water” value ([4]; 1.17 × 10^-3 M) was 147 ms. For the same compound, the “T1 Water” value ([4]; 1.46 × 10^-4 M) was 947 ms, the “T1 Water” value ([4]; 2.34 × 10^-3 M) was 81 ms and the “T2 Water” value ([4]; 2.34 × 10^-3 M) was 76 ms. The “T1 Water” value ([4]; 2.92 × 10^-4 M) was 561 ms, the “T1 Water” value ([4]; 4.67 × 10^-3 M) was 42 ms and the “T2 Water” value ([4]; 4.67 × 10^-3 M) was 36 ms. The “T1 Water” value ([4]; 5.84 × 10^-4 M) was 309 ms, the “T1 Water” value ([4]; 7.30 × 10^-5 M) was 1374 ms and the “T1 Water” value ([4]; 9.34 × 10^-3 M) was 23 ms. The “T2 Water” value ([4]; 9.34 × 10^-3 M) was 18 ms.
For `C[NH2+]C[C@H](O)[C@@H](O)[C@H](O)[C@H](O)CO.C[NH2+]C[C@H](O)[C@@H](O)[C@H](O)[C@H](O)CO.O=C([O-])CN(CCN(CC(=O)[O-])CC(=O)[O-])CCN(CC(=O)[O-])CC(=O)[O-].[Gd+3]` [Gd DTPA-di(N-methylglucamine), reference compound], the “T1, Skeletal Muscle” value [2] was 405 ms, the “change in spin lattice (T1) relaxation in the heart and liver” value ([2]; rabbits, 15 min, heart and liver) was “fails to produce any change” and the “T1 Plasma” value ([3]; 1.56 × 10^-3 M) was 134 ms. The “T2 Plasma” value ([3]; 1.56 × 10^-3 M) was 116 ms, the “T1 Plasma” value ([3]; 1.95 × 10^-4 M) was 636 ms and the “T1 Plasma” value ([3]; 3.13 × 10^-3 M) was 69 ms. For the same compound, the “T2 Plasma” value ([3]; 3.13 × 10^-3 M) was 61 ms, the “T1 Plasma” value ([3]; 3.91 × 10^-4 M) was 405 ms and the “T1 Plasma” value ([3]; 6.25 × 10^-3 M) was 39 ms. For the same compound, the “T2 Plasma” value ([3]; 6.25 × 10^-3 M) was 31 ms, the “T1 Plasma” value ([3]; 7.81 × 10^-4 M) was 240 ms and the “T1 Plasma” value ([3]; 9.77 × 10^-5 M) was 877 ms. For the same compound, the “T1 Water” value ([4]; 1.56 × 10^-3 M) was 163 ms, the “T2 Water” value ([4]; 1.56 × 10^-3 M) was 155 ms and the “T1 Water” value ([4]; 1.95 × 10^-4 M) was 1015 ms. The “T1 Water” value ([4]; 3.13 × 10^-3 M) was 83 ms, the “T2 Water” value ([4]; 3.13 × 10^-3 M) was 76 ms and the “T1 Water” value ([4]; 3.91 × 10^-4 M) was 582 ms. For the same compound, the “T1 Water” value ([4]; 6.25 × 10^-3 M) was 40 ms, the “T2 Water” value ([4]; 6.25 × 10^-3 M) was 35 ms and the “T1 Water” value ([4]; 7.81 × 10^-4 M) was 309 ms.

Source: patent publication US5087439A, “Paramagnetic metal-diethylenetriamine-pentaacetic acid partial amide complexes for magnetic resonance imaging” (Salutar, Inc., priority 1989, dated 1992)
